Reference: PubChem BioAssay (NCI)
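Protocol summary: plate cells (96-well), add compound at 5 concentrations, incubate 48 h, interpolate endpoints linearly. Abbreviation: GI50, concentration required for 50% inhibition of growth. The concentration for full growth arrest is given as TGI.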

Key:
Experiment in all cases: growth of human tumour cells (NCI), 48 h
HCT-15 colon = tested on: HCT-15 colon
A549 NSCLC = tested on: A549 NSCLC
SR leukemia = tested on: SR leukemia
OVCAR-8 ovarian = tested on: OVCAR-8 ovarian
HCC-2998 colon = tested on: HCC-2998 colon
SK-MEL-28 melanoma = tested on: SK-MEL-28 melanoma
786-0 renal = tested on: 786-0 renal
LOX IMVI melanoma = tested on: LOX IMVI melanoma
SK-OV-3 ovarian = tested on: SK-OV-3 ovarian
MDA-N = tested on: MDA-N
NCI-H23 lung = tested on: NCI-H23 lung
MALME-3M melanoma = tested on: MALME-3M melanoma
T-47D breast = tested on: T-47D breast
EKVX NSCLC = tested on: EKVX NSCLC
HL-60(TB) leukemia = tested on: HL-60(TB) leukemia
SF-268 CNS = tested on: SF-268 CNS
UACC-62 melanoma = tested on: UACC-62 melanoma
IGROV1 ovarian = tested on: IGROV1 ovarian
UACC-257 melanoma = tested on: UACC-257 melanoma
RXF 393 renal = tested on: RXF 393 renal
MOLT-4 leukemia = tested on: MOLT-4 leukemia
CAKI-1 renal = tested on: CAKI-1 renal
RPMI-8226 leukemia = tested on: RPMI-8226 leukemia
M14 melanoma = tested on: M14 melanoma
SF-295 CNS = tested on: SF-295 CNS
HOP-62 NSCLC = tested on: HOP-62 NSCLC
MCF7 breast = tested on: MCF7 breast
CCRF-CEM leukemia = tested on: CCRF-CEM leukemia
DU-145 prostate = tested on: DU-145 prostate
SN12C renal = tested on: SN12C renal
MDA-MB-231 breast = tested on: MDA-MB-231 breast
KM12 colon = tested on: KM12 colon
HT29 colon = tested on: HT29 colon
TK-10 renal = tested on: TK-10 renal
SW-620 colon = tested on: SW-620 colon
COLO 205 colon = tested on: COLO 205 colon
SK-MEL-5 melanoma = tested on: SK-MEL-5 melanoma
PC-3 prostate = tested on: PC-3 prostate
SNB-75 CNS = tested on: SNB-75 CNS
K-562 leukemia = tested on: K-562 leukemia
NCI-H226 lung = tested on: NCI-H226 lung
NCI-H460 lung = tested on: NCI-H460 lung
U251 CNS = tested on: U251 CNS
OVCAR-5 ovarian = tested on: OVCAR-5 ovarian
SF-539 CNS = tested on: SF-539 CNS
SNB-19 CNS = tested on: SNB-19 CNS
UO-31 renal = tested on: UO-31 renal
HOP-92 NSCLC = tested on: HOP-92 NSCLC
BT-549 breast = tested on: BT-549 breast
HS 578T breast = tested on: HS 578T breast
ACHN renal = tested on: ACHN renal
SK-MEL-2 melanoma = tested on: SK-MEL-2 melanoma
NCI-H522 lung = tested on: NCI-H522 lung
MDA-MB-435 = tested on: MDA-MB-435
NCI/ADR-RES ovarian = tested on: NCI/ADR-RES ovarian
OVCAR-4 ovarian = tested on: OVCAR-4 ovarian
A498 renal = tested on: A498 renal
OVCAR-3 ovarian = tested on: OVCAR-3 ovarian
HCT-116 colon = tested on: HCT-116 colon

Work on `CN1CCN(c2cc3nsnc3c3nsnc23)CC1` yielded a TGI (HCT-15 colon) of over 10 µM, a TGI (A549 NSCLC) of over 10 µM and a TGI (SR leukemia) of over 10 µM. For the same compound, the TGI (OVCAR-8 ovarian) was over 10 µM, the TGI (HCC-2998 colon) was over 10 µM and the TGI (SK-MEL-28 melanoma) was over 10 µM. The TGI (786-0 renal) was over 10 µM, the TGI (LOX IMVI melanoma) was over 10 µM and the TGI (SK-OV-3 ovarian) was over 10 µM. For the same compound, the TGI (MDA-N) was over 10 µM, the TGI (NCI-H23 lung) was over 10 µM and the TGI (MALME-3M melanoma) was over 10 µM. It also gave a TGI (T-47D breast) of over 10 µM, a TGI (EKVX NSCLC) of over 10 µM and a TGI (HL-60(TB) leukemia) of over 10 µM. It also gave a TGI (SF-268 CNS) of over 10 µM, a TGI (UACC-62 melanoma) of over 10 µM and a TGI (IGROV1 ovarian) of over 10 µM. It also gave a TGI (UACC-257 melanoma) of over 10 µM, a TGI (RXF 393 renal) of over 10 µM and a TGI (MOLT-4 leukemia) of over 10 µM. The TGI (CAKI-1 renal) was over 10 µM, the TGI (RPMI-8226 leukemia) was over 10 µM and the TGI (M14 melanoma) was over 10 µM. For the same compound, the TGI (SF-295 CNS) was over 10 µM, the TGI (HOP-62 NSCLC) was over 10 µM and the TGI (MCF7 breast) was over 10 µM. The TGI (CCRF-CEM leukemia) was over 10 µM, the TGI (DU-145 prostate) was over 10 µM and the TGI (SN12C renal) was over 10 µM. For the same compound, the TGI (MDA-MB-231 breast) was over 10 µM, the TGI (KM12 colon) was over 10 µM and the TGI (HT29 colon) was over 10 µM. For the same compound, the TGI (TK-10 renal) was over 10 µM, the TGI (SW-620 colon) was over 10 µM and the TGI (COLO 205 colon) was over 10 µM. It also gave a TGI (SK-MEL-5 melanoma) of over 10 µM, a TGI (PC-3 prostate) of over 10 µM and a TGI (SNB-75 CNS) of over 10 µM. The TGI (K-562 leukemia) was over 10 µM.
`CN1/C(=C\C=C\C2=[N+](C)c3ccccc3C2(C)C)C(C)(C)c2ccccc21` showed a GI50 (NCI-H226 lung) of 0.103 µM, a TGI (NCI-H226 lung) of 2.39 µM and a GI50 (HCT-15 colon) of 0.387 µM. It also gave a TGI (HCT-15 colon) of 7.85 µM, a GI50 (NCI-H460 lung) of 0.0541 µM and a TGI (NCI-H460 lung) of 0.922 µM. It also gave a GI50 (A549 NSCLC) of 0.0413 µM, a TGI (A549 NSCLC) of 13.5 µM and a GI50 (SR leukemia) of 0.194 µM. The TGI (SR leukemia) was 4.44 µM, the GI50 (U251 CNS) was 0.0369 µM and the TGI (U251 CNS) was 5.21 µM. For the same compound, the GI50 (OVCAR-8 ovarian) was 0.101 µM, the TGI (OVCAR-8 ovarian) was 7.52 µM and the GI50 (OVCAR-5 ovarian) was 0.37 µM. It also gave a TGI (OVCAR-5 ovarian) of 15.5 µM, a GI50 (HCC-2998 colon) of 0.041 µM and a TGI (HCC-2998 colon) of 1.25 µM. It also gave a GI50 (SK-MEL-28 melanoma) of 0.412 µM, a TGI (SK-MEL-28 melanoma) of 2.84 µM and a GI50 (786-0 renal) of 0.251 µM. For the same compound, the TGI (786-0 renal) was 5.44 µM, the GI50 (SF-539 CNS) was 0.224 µM and the TGI (SF-539 CNS) was 5.91 µM. It also gave a GI50 (SNB-19 CNS) of 0.067 µM, a TGI (SNB-19 CNS) of 12 µM and a GI50 (LOX IMVI melanoma) of 0.0445 µM. For the same compound, the TGI (LOX IMVI melanoma) was 0.796 µM, the GI50 (SK-OV-3 ovarian) was 0.152 µM and the TGI (SK-OV-3 ovarian) was 0.638 µM. It also gave a GI50 (NCI-H23 lung) of 0.0189 µM, a TGI (NCI-H23 lung) of 0.529 µM and a GI50 (UO-31 renal) of 0.229 µM. For the same compound, the TGI (UO-31 renal) was 3.23 µM, the GI50 (MALME-3M melanoma) was 0.0936 µM and the TGI (MALME-3M melanoma) was 0.818 µM. The GI50 (HOP-92 NSCLC) was 0.128 µM, the TGI (HOP-92 NSCLC) was 0.58 µM and the GI50 (T-47D breast) was 0.0179 µM. For the same compound, the TGI (T-47D breast) was 1.27 µM, the GI50 (EKVX NSCLC) was 0.0297 µM and the TGI (EKVX NSCLC) was 7.3 µM. It also gave a GI50 (BT-549 breast) of 0.0903 µM, a TGI (BT-549 breast) of 1.64 µM and a GI50 (HL-60(TB) leukemia) of 0.0271 µM. For the same compound, the TGI (HL-60(TB) leukemia) was 0.217 µM, the GI50 (SF-268 CNS) was 0.274 µM and the TGI (SF-268 CNS) was 13 µM. The GI50 (UACC-62 melanoma) was 0.124 µM, the TGI (UACC-62 melanoma) was 1.45 µM and the GI50 (IGROV1 ovarian) was 0.116 µM. The TGI (IGROV1 ovarian) was 1.74 µM, the GI50 (UACC-257 melanoma) was 0.0386 µM and the TGI (UACC-257 melanoma) was 0.452 µM. For the same compound, the GI50 (RXF 393 renal) was 0.216 µM, the TGI (RXF 393 renal) was 1.13 µM and the GI50 (HS 578T breast) was 0.216 µM. For the same compound, the TGI (HS 578T breast) was 4.45 µM, the GI50 (MOLT-4 leukemia) was 0.146 µM and the TGI (MOLT-4 leukemia) was 1.87 µM. For the same compound, the GI50 (CAKI-1 renal) was 0.55 µM, the TGI (CAKI-1 renal) was 5.04 µM and the GI50 (RPMI-8226 leukemia) was 0.0119 µM. For the same compound, the TGI (RPMI-8226 leukemia) was 1.33 µM, the GI50 (M14 melanoma) was 0.223 µM and the TGI (M14 melanoma) was 1.31 µM. The GI50 (ACHN renal) was 0.268 µM, the TGI (ACHN renal) was 3.15 µM and the GI50 (SF-295 CNS) was 0.0336 µM. It also gave a TGI (SF-295 CNS) of 1.27 µM, a GI50 (HOP-62 NSCLC) of 0.258 µM and a TGI (HOP-62 NSCLC) of 7.37 µM. For the same compound, the GI50 (MCF7 breast) was 0.127 µM, the TGI (MCF7 breast) was 1.18 µM and the GI50 (SK-MEL-2 melanoma) was 0.212 µM. It also gave a TGI (SK-MEL-2 melanoma) of 1.14 µM, a GI50 (NCI-H522 lung) of 0.0782 µM and a TGI (NCI-H522 lung) of 10.2 µM. For the same compound, the GI50 (CCRF-CEM leukemia) was 0.176 µM, the TGI (CCRF-CEM leukemia) was 12.6 µM and the GI50 (DU-145 prostate) was 0.105 µM. It also gave a TGI (DU-145 prostate) of 12.1 µM, a GI50 (SN12C renal) of 0.155 µM and a TGI (SN12C renal) of 1.11 µM. It also gave a GI50 (MDA-MB-231 breast) of 0.248 µM, a TGI (MDA-MB-231 breast) of 1.58 µM and a GI50 (MDA-MB-435) of 0.0739 µM. For the same compound, the TGI (MDA-MB-435) was 0.936 µM, the GI50 (KM12 colon) was 0.0363 µM and the TGI (KM12 colon) was 0.932 µM. It also gave a GI50 (HT29 colon) of 0.0444 µM, a TGI (HT29 colon) of 1.49 µM and a GI50 (TK-10 renal) of 0.56 µM. The TGI (TK-10 renal) was 14.8 µM, the GI50 (SW-620 colon) was 0.136 µM and the TGI (SW-620 colon) was 3.79 µM. For the same compound, the GI50 (NCI/ADR-RES ovarian) was 1.29 µM, the TGI (NCI/ADR-RES ovarian) was 4.97 µM and the GI50 (COLO 205 colon) was 0.0457 µM. The TGI (COLO 205 colon) was 0.257 µM, the GI50 (OVCAR-4 ovarian) was 0.0922 µM and the TGI (OVCAR-4 ovarian) was 5.21 µM. It also gave a GI50 (A498 renal) of 0.0556 µM, a TGI (A498 renal) of 0.979 µM and a GI50 (SK-MEL-5 melanoma) of 0.0322 µM. It also gave a TGI (SK-MEL-5 melanoma) of 0.151 µM, a GI50 (OVCAR-3 ovarian) of 0.0514 µM and a TGI (OVCAR-3 ovarian) of 0.948 µM. For the same compound, the GI50 (HCT-116 colon) was 0.0303 µM, the TGI (HCT-116 colon) was 1.11 µM and the GI50 (PC-3 prostate) was 0.0455 µM. It also gave a TGI (PC-3 prostate) of 5.97 µM, a GI50 (SNB-75 CNS) of 0.271 µM and a TGI (SNB-75 CNS) of 1.88 µM. For the same compound, the GI50 (K-562 leukemia) was under 0.0156 µM and the TGI (K-562 leukemia) was 1.39 µM.
